Assay results taken from patent US8666671B2, “Method for determining drug-molecular combinations that modulate and enhance the therapeutic safety and efficacy of biological or pharmaceutical drugs” (Enhanced Pharmaceuticals, Inc., priority 2007, dated 2014).

Test system: rats
Assay: In vivo response of rats (dP/dt, contractility of the heart) to Lopressor, dobutamine and Dob/Met
Description: FIG. 2 presents empirical data of the in vivo response of rats to Lopressor® (the brand name for metoprolol used by Novartis Pharmaceuticals Corporation), dobutamine and the dobutamine/metoprolol specific combination ratio (Dob/Met);
The Lopressor® acts much like an inverse agonist or negative antagonist in that it produces a steep decrease in the animals' dP/dt, which is a measure of the contractility of the heart. Although in this experimental context metoprolol may be inhibiting the sympathetic tone of these animals due to the production of their endogenous catacholamines, it functions much like an inverse agonist or negative antagonist. The data is plotted as the dP/dt response versus the dosages of the drugs or combination (dobutamine with metoprolol, Dob/Met). The average beginning baseline response was about 7400 mmHg/sec. From this baseline, the Lopressor® decreased dP/dt to below 2000. For the agonist, dobutamine, the average response for the rats labeled 8-11 are plotted with the unfilled circles. At doses below about 50 micrograms/kg/min, the responses rise to a peak value of about 11000 mmHg/sec, but at further dosages these values decline to below 4000 mmHg/sec.
Examining the responses of metoprolol (Lopressor®) and dobutamine alone, one might think that in combination they would produce a more profound decline in the response to well below 2000 mmHg/sec. […] However, this method can predict these behaviors and is useful in determining other specific ratio combinations that produce a range of desirable responses in physiological systems.

Structure (SMILES) | dP/dt at further dosages (decline after peak) (rats 8-11, average response, doses above about 50 micrograms/kg/min) | dP/dt peak value (rats 8-11, average response, doses below about 50 micrograms/kg/min, baseline about 7400 mmHg/sec) | dP/dt (contractility of the heart), decreased value (rats, in vivo, average beginning baseline about 7400 mmHg/sec, four individual rats)
CC(CCc1ccc(O)cc1)NCCc1ccc(O)c(O)c1 (stereo not drawn) [dobutamine] | below 4000 mmHg/sec | about 11000 mmHg/sec | 
COCCc1ccc(OCC(O)CNC(C)C)cc1 (stereo not drawn) [Lopressor, metoprolol] |  |  | below 2000 mmHg/sec
